This is an account of results in ChEMBL document CHEMBL3997811.

For one series, the system named is MDCK. Briefly: Cytotoxicity against MDCK cells after 48 hrs by neutral red uptake assay. Conditions: dog. It is filed as cell-based, Canis lupus familiaris.
A further series has as its system A549. The series can be described thus: Cytotoxicity against human A549 cells after 48 hrs by neutral red uptake assay. Type of series: cell-based. Conditions: a549, 48 h.

Broadly, the CC50 is the concentration that lowers cell viability or growth by half. A higher CC50 goes with lower toxicity to the cells.

`OC12CC3CC(C1)CC(NCc1cc(-c4cc(Cl)sc4Cl)on1)(C3)C2`: it took 87.6 µM to reach half-maximal cytotoxicity with MDCK (CC50).

With `CSc1ccccc1-c1cc(CNC23CC4CC(CC(O)(C4)C2)C3)no1`, the CC50 with MDCK was determined as 59.3 µM; in the series on A549, 102 µM.

Turning to `Clc1cc(-c2cc(CNC34CC5CC(CC(C5)C3)C4)no2)cs1`, the CC50 with MDCK was found to be 35.6 µM; in the series with A549 it was 52.6 µM.

In the case of `Oc1ccccc1-c1cc(CNC23CC4CC(CC(C4)C2)C3)no1`, the CC50 in the series on MDCK turned out to be 73.7 µM; in the series with A549, 78.2 µM.

As to `COc1sccc1-c1cc(CNC23CC4CC(CC(C4)C2)C3)no1`, the CC50 with MDCK amounted to 30.6 µM; in the series with A549 it was 35.5 µM.

`OC12CC3CC(C1)CC(NCc1cc(-c4ccccc4Cl)on1)(C3)C2`: the CC50 in the series on MDCK was determined as 64.1 µM; in the series on A549 it was 143 µM.

As to `Clc1cc(-c2cc(CNC34CC5CC(CC(C5)C3)C4)no2)c(Cl)s1`, the CC50 in the series with MDCK was found to be 39.3 µM; in the series with A549, 61.4 µM.
